We go through nine compounds from PubChem BioAssay (NCI).

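Values below derive from 48-hour exposures of cells grown in 96-well plates, with endpoints linearly interpolated between the two concentrations bracketing the appropriate inhibition level. At the TGI there is no net growth.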

Among the test systems are NCI/ADR-RES ovarian; PC-3 prostate; SR leukemia; BT-549 breast; RXF 393 renal; DU-145 prostate; UO-31 renal; OVCAR-4 ovarian; RPMI-8226 leukemia; HL-60(TB) leukemia; SNB-75 CNS; SF-295 CNS.
Assay in all cases: NCI-60 cell line screen, 48 h

Take `Clc1nc(Cl)c(Cl)c(Cl)n1`: the TGI in the experiment on NCI/ADR-RES ovarian was determined as 59.4 µM; in the experiment on PC-3 prostate, 34.4 µM; with SR leukemia, 14.6 µM; in the experiment with BT-549 breast, 42.4 µM; in the experiment on RXF 393 renal, 35 µM; in the experiment with DU-145 prostate, 31.7 µM. Moreover, the TGI with UO-31 renal is 46.4 µM; in the experiment on OVCAR-4 ovarian, 46.8 µM; with RPMI-8226 leukemia it was more than 100 µM; in the experiment on HL-60(TB) leukemia, 33.1 µM; in the experiment on SNB-75 CNS, 33.8 µM; in the experiment with SF-295 CNS, 36.9 µM.
As for `O=C1CC(=O)c2c(O)cc(O)c(c2O)-c2c(ccc(O)c2O)C2=CC(=O)c3c(O)cc(O)c(c3O2)-c2c1ccc(O)c2O` (tested in a mixture with another compound), the TGI in the experiment on NCI/ADR-RES ovarian, with PC-3 prostate, with SR leukemia, in the experiment with BT-549 breast, with RXF 393 renal and with DU-145 prostate was more than 50 µM in each case. Besides, the TGI with UO-31 renal, in the experiment on OVCAR-4 ovarian, with HL-60(TB) leukemia, in the experiment on SNB-75 CNS and with SF-295 CNS was more than 50 µM in each case.
Consider `COC(=O)C1=C(C)NC2(O)C=CC(=O)C3C(=O)N(c4ccccc4)C(=O)C132` (configuration not stated), for which the TGI with NCI/ADR-RES ovarian, in the experiment on PC-3 prostate, in the experiment on SR leukemia, with BT-549 breast, with RXF 393 renal and in the experiment on DU-145 prostate was more than 100 µM each time. Also, the TGI with UO-31 renal, in the experiment with OVCAR-4 ovarian, with RPMI-8226 leukemia, with HL-60(TB) leukemia, in the experiment with SNB-75 CNS and with SF-295 CNS was more than 100 µM in each case.
For `CCOc1cc(NC(C)=O)ccc1C(=O)NN1C(=O)C(Oc2ccccc2)C1c1ccccc1` (configuration not stated), the TGI in the experiment on NCI/ADR-RES ovarian was more than 100 µM; in the experiment on PC-3 prostate it was more than 100 µM; in the experiment with SR leukemia, 23.7 µM; with BT-549 breast, more than 100 µM; in the experiment with RXF 393 renal it was more than 100 µM; with DU-145 prostate, more than 100 µM. Further, the TGI in the experiment on OVCAR-4 ovarian, in the experiment with RPMI-8226 leukemia, in the experiment on HL-60(TB) leukemia, in the experiment with SNB-75 CNS and in the experiment with SF-295 CNS was more than 100 µM in each case.
Regarding `Clc1ccc(Cc2nc3ccc(CCN4CCN(c5ccccc5)CC4)cc3[nH]2)cc1`, the TGI is 51.6 µM in the experiment with NCI/ADR-RES ovarian; more than 100 µM with PC-3 prostate; 36 µM with SR leukemia; 34 µM in the experiment on BT-549 breast; 19.1 µM in the experiment on RXF 393 renal; 44 µM in the experiment with DU-145 prostate. For the same compound, the TGI in the experiment on UO-31 renal was 20.3 µM; in the experiment on OVCAR-4 ovarian it was 37.3 µM; in the experiment on RPMI-8226 leukemia, 54.5 µM; in the experiment on HL-60(TB) leukemia, more than 100 µM; in the experiment with SNB-75 CNS it was 38.3 µM; with SF-295 CNS, 26.5 µM.
Turning to `CCOC(=O)Nc1c(C#N)[n+]([O-])c2cc(Cl)c(Cl)cc2[n+]1[O-]`, the TGI is 52.2 µM in the experiment with NCI/ADR-RES ovarian; 31.8 µM in the experiment with PC-3 prostate; 24.3 µM with SR leukemia; 36.3 µM in the experiment with BT-549 breast; 33 µM in the experiment on RXF 393 renal; more than 100 µM in the experiment on DU-145 prostate. The TGI in the experiment with UO-31 renal was determined as 31.4 µM; with OVCAR-4 ovarian, 29.4 µM; in the experiment on RPMI-8226 leukemia, 16.7 µM; in the experiment on SNB-75 CNS it was 41.8 µM; in the experiment with SF-295 CNS, 34 µM.
For `NCCCn1c2ccccc2c2c3c(c4c(c21)CCC(O)CC4)C(=O)NC3=O` (configuration not stated), the TGI with NCI/ADR-RES ovarian worked out at 32.9 µM; with PC-3 prostate it was 16.2 µM; in the experiment on SR leukemia it was 5.15 µM; in the experiment with BT-549 breast, 20.2 µM; in the experiment with RXF 393 renal, 13.6 µM; in the experiment with DU-145 prostate, 14.1 µM. In addition, the TGI is 19.9 µM in the experiment with UO-31 renal; 5.44 µM in the experiment on OVCAR-4 ovarian; 14.6 µM in the experiment on RPMI-8226 leukemia; 22 µM in the experiment with HL-60(TB) leukemia; 15.6 µM with SF-295 CNS.
In the case of `CC1(C)[C@@H](Cn2cnc3c(N)ncnc32)CC[C@@]1(C)CO`, the TGI in the experiment on NCI/ADR-RES ovarian was more than 100 µM; in the experiment on PC-3 prostate it was more than 100 µM; with SR leukemia it was 76.8 µM; in the experiment with BT-549 breast, more than 100 µM; in the experiment with RXF 393 renal, more than 100 µM; in the experiment on DU-145 prostate, more than 100 µM. Moreover, the TGI in the experiment on UO-31 renal, in the experiment with OVCAR-4 ovarian, with HL-60(TB) leukemia, in the experiment with SNB-75 CNS and in the experiment on SF-295 CNS was more than 100 µM throughout.
As to `ClC(Cl)(Cl)C1=N[C@H]2[C@H](Br)[C@@H]3O[C@@H](c4ccccc4)[C@H](c4ccccc4)O[C@@H]3[C@H]2O1`, the TGI stood at 65.2 µM with NCI/ADR-RES ovarian; 30.4 µM in the experiment on PC-3 prostate; 52.2 µM in the experiment on SR leukemia; 53 µM with BT-549 breast; 45.4 µM with RXF 393 renal; 73.7 µM with DU-145 prostate. The TGI with UO-31 renal is 38.5 µM; in the experiment on OVCAR-4 ovarian it was 43.8 µM; in the experiment with RPMI-8226 leukemia, 41 µM; with SNB-75 CNS it was 44 µM; in the experiment with SF-295 CNS, 34.3 µM.
